Tested on: hepatocytes
Assay: RNA-seq of hepatocytes treated with Phase III failure compounds
Description: RNA-seq was performed to determine the effects of the compounds on hepatocytes.
Significance was determined by the criteria of FPKM≥0.5, a log 2(fold-change)≥1, and a […].

Structure (SMILES): NC(=O)c1ccc(I)c([N+](=O)[O-])c1 [BSI-201]
- RNA-seq results, CYP2B6 expression: 0.07
- RNA-seq results, CYP2C19 expression: 0.30
- RNA-seq results, CYP2D6 expression: −0.15
- RNA-seq results, CYP3A4 expression: −0.46
- RNA-seq results, CYP7B1 expression: 0.03
- RNA-seq results, CYP39A1 expression: −0.20
- RNA-seq results: CYP2B6 expression: 0.48
- RNA-seq results: CYP2C19 expression: 0.24
- RNA-seq results: CYP2D6 expression: 0.11
- RNA-seq results: CYP3A4 expression: 3.12
- RNA-seq results: CYP7B1 expression: 0.05
- RNA-seq results: CYP39A1 expression: 0.43
- significant modulation of expression of disease genes (RNA-seq, q≤0.05, hepatocytes, genes in the value or listed in the block): significantly (q≤0.05) modulate expression of RMRP
- RNA-seq results: A1BG expression (gene A1BG, hepatocytes): −0.21
- RNA-seq results: AGTR1 expression (gene AGTR1, hepatocytes): −0.22
- RNA-seq results: AGXT expression (gene AGXT, hepatocytes): −0.06
- RNA-seq results: AHI1 expression (gene AHI1, hepatocytes): 0.33
- RNA-seq results: AMPD3 expression (gene AMPD3, hepatocytes): 0.19
- RNA-seq results: AMT expression (gene AMT, hepatocytes): −0.04
- RNA-seq results: ANGPTL3 expression (gene ANGPTL3, hepatocytes): −0.14
- RNA-seq results: ANKS4B expression (gene ANKS4B, hepatocytes): −0.24
- RNA-seq results: ANKS6 expression (gene ANKS6, hepatocytes): 0.04
- RNA-seq results: ANPEP expression (gene ANPEP, hepatocytes): −0.09
- RNA-seq results: AOC2 expression (gene AOC2, hepatocytes): 0.36
- RNA-seq results: APOA2 expression (gene APOA2, hepatocytes): −0.52
- RNA-seq results: APOA5 expression (gene APOA5, hepatocytes): −0.17
- RNA-seq results: APOB expression (gene APOB, hepatocytes): 0.03
- RNA-seq results: COG5 expression (gene COG5, hepatocytes): −0.06
- RNA-seq results: COG6 expression (gene COG6, hepatocytes): −0.01
- RNA-seq results: COL1A1 expression (gene COL1A1, hepatocytes): −0.34
- RNA-seq results: COX6A1 expression (gene COX6A1, hepatocytes): −0.13
- RNA-seq results: CP expression (gene CP, hepatocytes): 0.11
- RNA-seq results: CPS1 expression (gene CPS1, hepatocytes): 0.09
- RNA-seq results: CPT1A expression (gene CPT1A, hepatocytes): −0.18
- RNA-seq results: CPT2 expression (gene CPT2, hepatocytes): 0.10
- RNA-seq results: CROT expression (gene CROT, hepatocytes): −0.04
- RNA-seq results: CSPP1 expression (gene CSPP1, hepatocytes): −0.07
- RNA-seq results: CTC1 expression (gene CTC1, hepatocytes): −0.08
- RNA-seq results: CTDSP2 expression (gene CTDSP2, hepatocytes): 0.10
- RNA-seq results: CTH expression (gene CTH, hepatocytes): 0.23
- RNA-seq results: CTNS expression (gene CTNS, hepatocytes): 0.08
- RNA-seq results: CTSF expression (gene CTSF, hepatocytes): 0.10
- RNA-seq results: CTSK expression (gene CTSK, hepatocytes): −0.15
- RNA-seq results: CYB5A expression (gene CYB5A, hepatocytes): 0.73
- RNA-seq results: CYB5R3 expression (gene CYB5R3, hepatocytes): 0.04
- RNA-seq results: CYP27A1 expression (gene CYP27A1, hepatocytes): 0.04
- RNA-seq results: DAO expression (gene DAO, hepatocytes): −0.04
- RNA-seq results: DBT expression (gene DBT, hepatocytes): 0.04
- RNA-seq results: DCDC2 expression (gene DCDC2, hepatocytes): 0.01
- RNA-seq results: DCXR expression (gene DCXR, hepatocytes): −0.01
- RNA-seq results: FABP1 expression (gene FABP1, hepatocytes): −0.25
- RNA-seq results: FADD expression (gene FADD, hepatocytes): −0.08
- RNA-seq results: FAM111A expression (gene FAM111A, hepatocytes): 0.07
- RNA-seq results: FAM111B expression (gene FAM111B, hepatocytes): 0.03
- RNA-seq results: FAN1 expression (gene FAN1, hepatocytes): 0.05
- RNA-seq results: FARS2 expression (gene FARS2, hepatocytes): −0.14
- RNA-seq results: FASLG expression (gene FASLG, hepatocytes): −0.21
- RNA-seq results: FGA expression (gene FGA, hepatocytes): 0.16
- RNA-seq results: FGD1 expression (gene FGD1, hepatocytes): −0.07
- RNA-seq results: FGFR2 expression (gene FGFR2, hepatocytes): 0.07
- RNA-seq results: FIG4 expression (gene FIG4, hepatocytes): −0.12
- RNA-seq results: FIS1 expression (gene FIS1, hepatocytes): −0.06
- RNA-seq results: FTCD expression (gene FTCD, hepatocytes): 0.31
- RNA-seq results: FTH1 expression (gene FTH1, hepatocytes): 0.06
- RNA-seq results: FUCA1 expression (gene FUCA1, hepatocytes): −0.11
- RNA-seq results: FXN expression (gene FXN, hepatocytes): 0.23
- RNA-seq results: G6PC3 expression (gene G6PC3, hepatocytes): 0.02
- RNA-seq results: G6PC expression (gene G6PC, hepatocytes): 0.12
- RNA-seq results: G6PD expression (gene G6PD, hepatocytes): 0.13
- RNA-seq results: GALK1 expression (gene GALK1, hepatocytes): −0.03
- RNA-seq results: GALK2 expression (gene GALK2, hepatocytes): 0.00
- RNA-seq results: GALT expression (gene GALT, hepatocytes): 0.01
- RNA-seq results: GATA6 expression (gene GATA6, hepatocytes): −0.07
- RNA-seq results: GATM expression (gene GATM, hepatocytes): −0.15
- RNA-seq results: GBA expression (gene GBA, hepatocytes): 0.02
- RNA-seq results: GBE1 expression (gene GBE1, hepatocytes): −0.15
- RNA-seq results: GCH1 expression (gene GCH1, hepatocytes): −0.06
- RNA-seq results: GCKR expression (gene GCKR, hepatocytes): 0.23
- RNA-seq results: GCLC expression (gene GCLC, hepatocytes): −0.04
- RNA-seq results: GOSH expression (gene GOSH, hepatocytes): 0.46
- RNA-seq results: RRM2B (gene RRM2B, hepatocytes): −0.28
- RNA-seq results: RSAD1 (gene RSAD1, hepatocytes): −0.02
- RNA-seq results: SAMHD1 (gene SAMHD1, hepatocytes): −0.24
- RNA-seq results: SC5D (gene SC5D, hepatocytes): −0.29
- RNA-seq results: SCARB1 (gene SCARB1, hepatocytes): −0.03
- RNA-seq results: SCN9A (gene SCN9A, hepatocytes): 0.10
- RNA-seq results: SDCCAG8 (gene SDCCAG8, hepatocytes): −0.06
- RNA-seq results: SEPN1 (gene SEPN1, hepatocytes): −0.11
- RNA-seq results: SERAC1 (gene SERAC1, hepatocytes): −0.22
- RNA-seq results: SERPINA1 (gene SERPINA1, hepatocytes): −0.17
- RNA-seq results: SERPING1 (gene SERPING1, hepatocytes): −0.16
- RNA-seq results: SERPINI1 (gene SERPINI1, hepatocytes): −0.41
- RNA-seq results: SETBP1 (gene SETBP1, hepatocytes): 0.06
- RNA-seq results: SFXN4 (gene SFXN4, hepatocytes): −0.19
- RNA-seq results: SLC10A1 (gene SLC10A1, hepatocytes): −0.31
- RNA-seq results: SLC10A3 (gene SLC10A3, hepatocytes): 0.33
- RNA-seq results: SLC10A5 (gene SLC10A5, hepatocytes): 0.19
- RNA-seq results: SLC10A7 (gene SLC10A7, hepatocytes): −0.38
- RNA-seq results: SLC11A2 (gene SLC11A2, hepatocytes): −0.02
- RNA-seq results: SLC19A1 (gene SLC19A1, hepatocytes): 0.05
- RNA-seq results: SLC19A2 (gene SLC19A2, hepatocytes): 0.00
- RNA-seq results: SLC19A3 (gene SLC19A3, hepatocytes): −0.03
- RNA-seq results: SLC22A1 (gene SLC22A1, hepatocytes): −0.32
- RNA-seq results: SLC22A5 (gene SLC22A5, hepatocytes): 0.05
- RNA-seq results: SLC25A1 (gene SLC25A1, hepatocytes): 0.08
- RNA-seq results: SLC25A10 (gene SLC25A10, hepatocytes): −0.16
- RNA-seq results: SLC25A12 (gene SLC25A12, hepatocytes): 0.23
- RNA-seq results: SLC25A13 (gene SLC25A13, hepatocytes): −0.13
- RNA-seq results: SLC25A15 (gene SLC25A15, hepatocytes): 0.02
- RNA-seq results: SLC25A19 (gene SLC25A19, hepatocytes): −0.15
- RNA-seq results: SLC25A20 (gene SLC25A20, hepatocytes): −0.16
- RNA-seq results: SLC25A29 (gene SLC25A29, hepatocytes): 0.09
- RNA-seq results: SLC25A32 (gene SLC25A32, hepatocytes): −0.05

Reference: US20210254056A1, “IDENTIFICATION AND TARGETED MODULATION OF GENE SIGNALING NETWORKS” (CAMP4 THERAPEUTICS CORPORATION, priority 2017, published 2021)
